Like-named read-outs stand apart in the source and are kept apart here.

The results in this text go back to patent US20230414622A1, “PHARMACEUTICAL METHOTREXATE COMPOSITION” (Leopold MTX GmbH, priority 2020, published 2023).

Data set [1] concerns the target T1, TNF-α (Homo sapiens, UniProt P01375).
T1 construct: purchased Acrobiosystems, USA
The data set is described as follows: Microscale thermophoresis (MST) binding affinity to Cy5-labelled recombinant TNF-α. The settings on record: for Kd: PBS pH 7.5, 25° C., mean of six independent test series. The method, then:
(§1) In addition to thermodynamic stability, the binding affinity of the biopharmaceuticals in compositions according to the present invention was determined and compared with the binding affinity in corresponding reference compositions.
(§2) Binding studies were performed using microscale thermophoresis (MST) with the Monolith NT.115 device (NanoTemper Technologies, Munich, Germany).
(§3) For the MST measurements, 10 microliters each of the biopharmaceutical at a concentration of […] were mixed with 10 microliters each of a serial dilution of methotrexate disodium in PBS buffer pH 7.5 to prepare the compositions according to the invention. The final concentration of MTX in all samples was 55 micromoles per liter, while the concentration of the respective ligand ranged from 1.5 micromoles per liter to 25 millimoles per liter.
(§4) Samples were loaded into coated capillaries (NanoTemper Technologies) according to the manufacturer's instructions and fluorescence was recorded for 20 seconds at 100% laser power and 40% MST power. The temperature of the instrument was set at 25° C. for all measurements. After the recordal of MST time traces, the data were analyzed. The equilibrium dissociation constant (KD) was determined based on the change in normalized fluorescence as a function of the concentration of the corresponding ligand after 14 seconds of thermophoresis using MO affinity analysis software (NanoTemper Technologies).
(§5) The values shown are the arithmetic mean values from six independent test series in each case.

Data set [2] is described as follows: Thermal unfolding profiles (Tycho NT.6 fluorimeter): temperature stability of the biologic with or without MTX. It is filed as physicochemical. The text has this: To prepare the compositions according to the invention, the biologics were combined with methotrexate disodium at concentrations of 25 milligrams per milliliter, 16.6 milligrams per milliliter, 10.0 milligrams per milliliter, 7.14 milligrams per milliliter, and 5.0 milligrams per milliliter, respectively. Phosphate buffered saline (PBS buffer) pH 7.5 was used as the solvent. As reference composition in each case served the biopharmaceutical in equivalent concentration in PBS buffer pH 7.5 without the addition of methotrexate disodium.
In each case, the above-noted concentrations were the final concentration of the biopharmaceutical or the methotrexate in the pharmaceutical composition.
After 20 days of incubation, the compositions were measured using a Tycho NT.6 fluorimeter (NanoTemper Technologies, Munich, Germany) according to the manufacturer's instructions to determine the thermal unfolding profiles of the biologics.
The inflection point of each curve indicates the denaturation temperature of the biopharmaceutical in the composition.

Data set [3] addresses CD80. The data set is described as follows: Microscale thermophoresis (MST) binding affinity to Cy5-labelled recombinant CD80. Particulars: for Kd: PBS pH 7.5, 25° C., mean of six independent test series. The method, then:
as §1, §2
Recombinant TNF-α, CD20, and CD80 (Acrobiosystems, USA) were labeled for MST measurements using the fluorescent dye Cy5 (Thermo Fisher Scientific, Germany) according to the manufacturer's instructions. The concentration of the recombinant proteins was measured after labeling using a UV-Vis spectrophotometer, and a labeling efficiency of 80 was determined.
as §3, §4, §5

The target in data set [4] is T2, Recombinant CD20 (Acrobiosystems), Cy5-labelled (UniProt P11836 1-297, limits assumed, labelled with fluorescent dye Cy5 (site not stated)).
T2 construct: Bought recombinant protein; construct not described; also called B-lymphocyte antigen CD20
T2 sequence (looked up): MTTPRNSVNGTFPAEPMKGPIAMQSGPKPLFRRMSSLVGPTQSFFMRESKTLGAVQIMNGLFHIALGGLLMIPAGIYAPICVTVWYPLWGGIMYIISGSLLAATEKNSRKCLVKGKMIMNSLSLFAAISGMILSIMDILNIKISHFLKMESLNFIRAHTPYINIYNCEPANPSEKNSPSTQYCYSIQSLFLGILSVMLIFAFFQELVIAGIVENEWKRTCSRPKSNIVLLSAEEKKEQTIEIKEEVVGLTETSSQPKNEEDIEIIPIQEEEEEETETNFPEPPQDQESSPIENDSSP
Nature of the data set: microscale thermophoresis; KD with MTX against the reference without MTX. (Microscale thermophoresis detects binding through changes in fluorescence in a small temperature gradient.)

The target of data set [5] is T2, Recombinant CD20 (Acrobiosystems), …. Nature of the data set: microscale thermophoresis, Cy5-labelled CD20, PBS pH 7.5, 25 °C, reference without MTX; mean of six series.
Data set [6] has the same target. The data set is described as follows: microscale thermophoresis, Cy5-labelled CD20, PBS pH 7.5, 25 °C, with methotrexate disodium; mean of six series.
Setting [7] is: MTX 55 micromoles per liter, read-out: KD with MTX.
[8] abbreviates: read-out: KD without MTX (reference).

Chain of CD80 (P33681 35-288): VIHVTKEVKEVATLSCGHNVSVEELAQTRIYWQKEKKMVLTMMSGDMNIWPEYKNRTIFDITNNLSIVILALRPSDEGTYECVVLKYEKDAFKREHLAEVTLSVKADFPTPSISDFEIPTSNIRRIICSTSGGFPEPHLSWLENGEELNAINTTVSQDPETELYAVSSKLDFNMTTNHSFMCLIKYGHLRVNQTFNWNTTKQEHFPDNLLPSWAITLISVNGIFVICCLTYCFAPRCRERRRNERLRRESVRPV
T1 sequence (P01375 77-233 limits assumed): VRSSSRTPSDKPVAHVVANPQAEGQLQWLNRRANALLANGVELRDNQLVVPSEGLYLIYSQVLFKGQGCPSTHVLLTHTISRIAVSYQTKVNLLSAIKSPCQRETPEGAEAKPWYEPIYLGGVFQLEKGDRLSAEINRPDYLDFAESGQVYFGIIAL

In the case of Adalimumab, the results for the equilibrium dissociation constant (Kd) in data set [1] (setting [7]) and in data set [1] (setting [8]) were 0.14 nM and 0.147 nM, respectively. In addition, in data set [1] (in words, the b130 statement covers all tested ligands (TNF-α, CD20, CD80)), the “binding affinity / binding strength in composition with MTX compared to control without MTX” value was “higher binding affinity”. Also, the “Relative increase in binding strength” value in data set [1] (with MTX vs without MTX) stood at 5%.
On to Etanercept, for which, in data set [2] (MTX 5 milligrams per milliliter, PBS pH 7.5, 20 days of incubation), the “temperature stability in composition with MTX” value was 74.3 °C. The “denaturation temperature / temperature stability in reference composition without MTX” value in data set [2] (PBS buffer pH 7.5, without MTX, after 20 days of incubation) came to 73.9 °C. The Kd in data set [1] (setting [7]) worked out at 0.005 nM; in data set [1] (setting [8]) it was 0.0116 nM.
As to “Rituximab: biologic that specifically binds B-lymphocyte antigen CD20 (trade names: MabThera, Rituxan)”, the Kd in data set [3] (setting [7]) was 6.8 nM; in data set [3] (setting [8]), 11.3 nM. In data set [3] (with MTX vs without MTX), the “Relative increase in binding strength” value was determined as 66%.

B1: Rituximab (MabThera) (antibody, V domains shown)
VH: QVQLQQPGAELVKPGASVKMSCKASGYTFTSYNMHWVKQTPGRGLEWIGAIYPGNGDTSYNQKFKGKATLTADKSSSTAYMQLSSLTSEDSAVYYCARSTYYGGDWYFNVWGAGTTVTVSA
VL: QIVLSQSPAILSASPGEKVTMTCRASSSVSYIHWFQQKPGSSPKPWIYATSNLASGVPVRFSGSGSGTSYSLTISRVEAEDAATYYCQQWTSNPPTFGGGTKLEIK
On to B1, for which, in data set [4], the “Relative increase in binding strength” value stood at 66%. The Kd was determined as 11.3 nM in data set [5] and 6.8 nM in data set [6].

As usually defined, the Kd is a measure of binding affinity in units of concentration.
